Data from patent US11142515B2, “Pyrazolyl-ureas as kinase inhibitors” (RESPIVERT LIMITED, priority 2014, dated 2021).

Experiments:
[1] = target: T1, p38 MAPKα isoform (MAPK14) (Homo sapiens, UniProt Q16539); experiment: p38 MAPKα enzyme inhibition (Z-LYTE FRET); format: biochemical; conditions: Table 2B, unit inferred; read-out: p38 MAPKα (Enzyme Profile)
T1 construct: purchased Life Technologies
How it was run: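 Recombinant human MAPK14 (40 ng/mL stock) was preincubated 2 h at RT with compound (stock dilutions 0.0012-40 μg/mL). The Z-LYTE FRET read-out used a MAPKAP-K2-derived peptide, and protease development for 1 h cleaved only non-phosphorylated peptide. Phosphorylation was calculated from the coumarin/fluorescein emission ratio.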

p38MAPKγ (MAPK12) = target: T2, p38MAPKγ (MAPK12) (Homo sapiens, UniProt P53778); experiment: p38 MAPKγ enzyme inhibition (Z-LYTE FRET); format: biochemical; conditions: Table 2B, unit inferred; read-out: p38 MAPKγ (Enzyme Profile)
T2 construct: purchased Life Technologies
T2 sequence (P53778 1-367): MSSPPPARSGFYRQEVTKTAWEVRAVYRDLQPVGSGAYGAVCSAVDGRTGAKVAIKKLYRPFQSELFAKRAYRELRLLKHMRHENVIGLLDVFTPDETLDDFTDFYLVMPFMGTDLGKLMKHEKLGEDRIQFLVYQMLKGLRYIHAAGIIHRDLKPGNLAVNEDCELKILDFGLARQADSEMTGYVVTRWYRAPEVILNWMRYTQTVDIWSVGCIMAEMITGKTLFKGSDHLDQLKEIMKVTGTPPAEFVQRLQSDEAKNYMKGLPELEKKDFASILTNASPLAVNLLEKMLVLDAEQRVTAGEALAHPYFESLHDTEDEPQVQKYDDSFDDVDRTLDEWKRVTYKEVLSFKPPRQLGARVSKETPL
How it was run: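 Z-LYTE read-out: after 1 h protease development, only non-phosphorylated peptide is cleaved, and the donor/acceptor (coumarin/fluorescein) ratio reports phosphorylation. Beforehand, enzyme and compound (stock concentrations 0.0012–40 μg/mL) were preincubated 2 h at RT, then the kinase reaction ran 1 h at RT with peptide and ATP (8 μM and 400 μM stocks).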

T1 sequence (Q16539 whole entry, canonical isoform): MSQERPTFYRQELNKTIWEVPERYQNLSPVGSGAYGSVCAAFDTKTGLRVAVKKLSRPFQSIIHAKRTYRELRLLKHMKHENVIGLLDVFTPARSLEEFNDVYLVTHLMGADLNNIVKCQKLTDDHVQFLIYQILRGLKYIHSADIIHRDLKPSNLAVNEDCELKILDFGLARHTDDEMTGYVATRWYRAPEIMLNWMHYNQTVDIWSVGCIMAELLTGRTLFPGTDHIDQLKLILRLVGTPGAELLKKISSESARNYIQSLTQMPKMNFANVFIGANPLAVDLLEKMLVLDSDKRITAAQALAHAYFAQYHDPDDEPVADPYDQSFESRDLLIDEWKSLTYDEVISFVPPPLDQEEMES

SMILES | IC50 [1] | IC50 (p38MAPKγ (MAPK12))
CCc1cnc(Nc2cc(COc3ccc(NC(=O)Nc4cc(C(C)(C)C)nn4-c4cccc(C)c4)c4ccccc34)ccn2)cn1 [Example 159, 1-(3-(tert-butyl)-1-(m-tolyl)-1H-pyrazol-5-yl)-3-(4-((2-((5-ethylpyrazin-2-yl)amino)pyridin-4-yl)methoxy)naphthalen-1-yl)urea] | 36 nM | 427 nM
Cc1cccc(-n2nc(C(C)(C)C)cc2NC(=O)Nc2ccc(OCc3ccnc(Nc4cncc(C5CC5)n4)c3)c3ccccc23)c1 [Example 160, 1-(3-(tert-butyl)-1-(m-tolyl)-1H-pyrazol-5-yl)-3-(4-((2-((6-cyclopropylpyrazin-2-yl)amino)pyridin-4-yl)methoxy)naphthalen-1-yl) urea] | 34 nM | 510 nM
CCc1cncc(Nc2cc(COc3ccc(NC(=O)Nc4cc(C(C)(C)C)nn4-c4ccc(OC)c(F)c4)c4ccccc34)ccn2)n1 [Example 168, 1-(3-(tert-butyl)-1-(3-fluoro-4-methoxyphenyl)-1H-pyrazol-5-yl)-3-(4-((2-((6-ethylpyrazin-2-yl)amino)pyridin-4-yl)methoxy)naphthalen-1-yl)urea] | 34 nM | 1200 nM
Cc1ncc(Nc2cc(COc3ccc(NC(=O)Nc4cc(C(C)(C)C)nn4-c4cccc(F)c4)c4ccccc34)ccn2)nc1C [Example 169, 1-(3-(tert-butyl)-1-(3-fluorophenyl)-1H-pyrazol-5-yl)-3-(4-((2-((5,6-dimethylpyrazin-2-yl)amino)pyridin-4-yl)methoxy)naphthalen-1-yl)urea] | 26 nM | 449 nM
COc1cccc(-n2nc(C(C)(C)C)cc2NC(=O)Nc2ccc(OCc3ccnc(Nc4cnc(C)c(C)n4)c3)c3ccccc23)c1 [Example 170, 1-(3-(tert-butyl)-1-(3-methoxyphenyl)-1H-pyrazol-5-yl)-3-(4-((2-((5,6-dimethylpyrazin-2-yl)amino)pyridin-4-yl)methoxy)naphthalen-1-yl)urea] | 35 nM | 329 nM
CCCc1cncc(Nc2cc(COc3ccc(NC(=O)Nc4cc(C(C)(C)C)nn4-c4ccc(C)cc4)c4ccccc34)ccn2)n1 [Example 172, 1-(3-(tert-butyl)-1-(p-tolyl)-1H-pyrazol-5-yl)-3-(4-((2-((6-propylpyrazin-2-yl)amino)pyridin-4-yl)methoxy)naphthalen-1-yl) urea] | 31 nM | 169 nM
CCc1ccc(-n2nc(C(C)(C)C)cc2NC(=O)Nc2ccc(OCc3ccnc(Nc4cncc(CC)n4)c3)c3ccccc23)cc1 [Example 173, 1-(3-(tert-butyl)-1-(4-ethylphenyl)-1H-pyrazol-5-yl)-3-(4-((2-((6-ethylpyrazin-2-yl)amino)pyridin-4-yl)methoxy)naphthalen-1-yl) urea] | 54 nM | 571 nM
CCc1cncc(Nc2cc(COc3ccc(NC(=O)Nc4cc(C(C)(C)C)nn4-c4cccc(Cl)c4)c4ccccc34)ccn2)n1 [Example 175, 1-(3-(tert-butyl)-1-(3-chlorophenyl)-1H-pyrazol-5-yl)-3-(4-((2-((6-ethylpyrazin-2-yl)amino)pyridin-4-yl)methoxy)naphthalen-1-yl)urea] | 38 nM | > 15500 nM
Cc1ccc(-n2nc(C(C)(C)C)cc2NC(=O)Nc2ccc(OCc3ccnc(Nc4cnc(C(=O)N5CCC(F)CC5)cn4)c3)c3ccccc23)cc1 [Example 176, 1-(3-(tert-butyl)-1-(p-tolyl)-1H-pyrazol-5-yl)-3-(4-((2-((5-(4-fluoropiperidine-1-carbonyl)pyrazin-2-yl)amino)pyridin-4-yl)methoxy)naphthalen-1-yl)urea] | 36 nM | 458 nM
Cc1ncc(Nc2cc(COc3ccc(NC(=O)Nc4cc(C(C)(C)C)nn4-c4cccc(Cl)c4)c4ccccc34)ccn2)nc1C [Example 179, 1-(3-(tert-butyl)-1-(3-chloro-phenyl)-1H-pyrazol-5-yl)-3-(4-((2-((5,6-dimethyl-pyrazin-2-yl)amino)pyridin-4-yl)methoxy)naphthalen-1-yl)urea] | 46 nM | > 15500 nM

Stronger by IC50 [1], values ahead:

IC50 [1] | IC50 (p38MAPKγ (MAPK12)) | SMILES
25 nM | 259 nM | CCc1cncc(Nc2cc(COc3ccc(NC(=O)Nc4cc(C(C)(C)C)nn4-c4ccc(C)c(F)c4)c4ccccc34)ccn2)n1 [Example 167, 1-(3-(tert-butyl)-1-(3-fluoro-4-methylphenyl)-1H-pyrazol-5-yl)-3-(4-((2-((6-ethylpyrazin-2-yl)amino)pyridin-4-yl)methoxy)naphthalen-1-yl) urea]
19 nM | 389 nM | COC1CN(C(=O)c2cnc(Nc3cc(COc4ccc(NC(=O)Nc5cc(C(C)(C)C)nn5-c5ccc(C)cc5)c5ccccc45)ccn3)cn2)C1 [Example 163, 1-(3-(tert-butyl)-1-(p-tolyl)-1H-pyrazol-5-yl)-3-(4-((2-((5-(3-methoxyazetidine-1-carbonyl)pyrazin-2-yl)amino)pyridin-4-yl)methoxy)naphthalen-1-yl) urea]
19 nM | 112 nM | Cc1cc(C)cc(-n2nc(C(C)(C)C)cc2NC(=O)Nc2ccc(OCc3ccnc(Nc4cnccn4)c3)c3ccccc23)c1 [Example 180, 1-(3-(tert-butyl)-1-(3,5-dimethylphenyl)-1H-pyrazol-5-yl)-3-(4-((2-(pyrazin-2-ylamino)pyridin-4-yl)methoxy)naphthalen-1-yl) urea]
12 nM | 128 nM | CCc1cccc(-n2nc(C(C)(C)C)cc2NC(=O)Nc2ccc(OCc3ccnc(Nc4cnccn4)c3)c3ccccc23)c1 [Example 165, 1-(3-(tert-butyl)-1-(3-ethyl-phenyl)-1H-pyrazol-5-yl)-3-(4-((2-(pyrazin-2-ylamino)pyridin-4-yl)methoxy)naphthalen-1-yl) urea]
12 nM | 49 nM | Cc1ccc(-n2nc(C(C)(C)C)cc2NC(=O)Nc2ccc(OCc3ccnc(Nc4cncc(CCO)n4)c3)c3ccccc23)cc1 [Example 171, 1-(3-(tert-butyl)-1-(p-tolyl)-1H-pyrazol-5-yl)-3-(4-((2-((6-(2-hydroxyethyl)pyrazin-2-yl)amino)pyridin-4-yl)methoxy)naphthalen-1-yl)urea]
10 nM | 74 nM | Cc1ccc(-n2nc(C(C)(C)C)cc2NC(=O)Nc2ccc(OCc3ccnc(Nc4cncc(C5CCOCC5)n4)c3)c3ccccc23)cc1 [Example 161, 1-(3-(tert-butyl)-1-(p-tolyl)-1H-pyrazol-5-yl)-3-(4-((2-((6-(tetrahydro-2H-pyran-4-yl)pyrazin-2-yl)amino)pyridin-4-yl)methoxy)naphthalen-1-yl)urea]
7.7 nM | 56 nM | CC(C)(C)c1cc(NC(=O)Nc2ccc(OCc3ccnc(Nc4cnccn4)c3)c3ccccc23)n(-c2cccc(CO)c2)n1 [Example 174, 1-(3-(tert-butyl)-1-(3-(hydroxymethyl)phenyl)-1H-pyrazol-5-yl)-3-(4-((2-(pyrazin-2-ylamino)pyridin-4-yl)methoxy)naphthalen-1-yl)urea]
6.8 nM | 2340 nM | CCc1ccc(-n2nc(C(C)(C)C)cc2NC(=O)Nc2ccc(OCc3ccnc(Nc4cnc(CO)cn4)c3)c3ccccc23)cc1 [Example 164, 1-(3-(tert-butyl)-1-(4-ethylphenyl)-1H-pyrazol-5-yl)-3-(4-((2-((5-(hydroxymethyl)pyrazin-2-yl)amino)pyridin-4-yl)methoxy)naphthalen-1-yl) urea]
6.2 nM | 52 nM | COCc1cccc(-n2nc(C(C)(C)C)cc2NC(=O)Nc2ccc(OCc3ccnc(Nc4cnccn4)c3)c3ccccc23)c1 [Example 166, 1-(3-(tert-butyl)-1-(3-(methoxymethyl)phenyl)-1H-pyrazol-5-yl)-3-(4-((2-(pyrazin-2-ylamino)pyridin-4-yl)methoxy)naphthalen-1-yl)urea]
5.8 nM | 36 nM | COc1cccc(-n2nc(C(C)(C)C)cc2NC(=O)Nc2ccc(OCc3ccnc(Nc4cnc(CO)cn4)c3)c3ccccc23)c1 [Example 178, 1-(3-(tert-butyl)-1-(3-methoxyphenyl)-1H-pyrazol-5-yl)-3-(4-((2-((5-(hydroxy-methyl)pyrazin-2-yl)amino)pyridin-4-yl)methoxy)naphthalen-1-yl)urea]
5.2 nM | 81 nM | COc1ccc(-n2nc(C(C)(C)C)cc2NC(=O)Nc2ccc(OCc3ccnc(Nc4cnc(CO)cn4)c3)c3ccccc23)cn1 [Example 177, 1-(3-(tert-butyl)-1-(6-methoxypyridin-3-yl)-1H-pyrazol-5-yl)-3-(4-((2-((5-(hydroxymethyl)pyrazin-2-yl)amino)pyridin-4-yl)methoxy)naphthalen-1-yl) urea]
4.7 nM | 37 nM | Cc1ccc(-n2nc(C(C)(C)C)cc2NC(=O)Nc2ccc(OCc3ccnc(Nc4cnc(C(=O)N5CC[C@@H](O)C5)cn4)c3)c3ccccc23)cc1 [Example 162, (R)-1-(3-(tert-butyl)-1-(p-tolyl)-1H-pyrazol-5-yl)-3-(4-((2-((5-(3-hydroxypyrrolidine-1-carbonyl)pyrazin-2-yl)amino)pyridin-4-yl)methoxy)naphthalen-1-yl)urea]
